# Measured values reported in US10857136B2, “Compounds for use in the prevention and/or treatment of non-alcoholic fat liver disease and non-alcoholic steatohepatitis” (SJT MOLECULAR RESEARCH, SL, priority 2017, dated 2020).
# Experiments:
# Type in all cases: in vivo
# [1] = tested on: DIO-NASH mice (C57Bl/6J male mice); test: Liver toxicity: plasma ALT and AST, 8 weeks assay in DIO-NASH mice; conditions: 50 mg/kg, p.o., b.i.d., end of treatment, vs DIO-NASH vehicle
# Method: The assay was carried out to evaluate the effect of the compounds of the invention on liver toxicity for animals with non-alcoholic fat liver disease (DIO-NASH mice). For this assay, the effect of compound 4a in plasma Alanine Aminotransferase (ALT) and in plasma Aspartate Aminotransferase (AST) was evaluated. DIO-NASH mice (C57Bl/6J male mice) were treated with a hydrochloride salt of compound 4a during 8 weeks (50 mg/kg, p.o., b.i.d.), versus a pathological control of DIO-NASH mice and a non-pathological control LEAN-CHOW mice, both treated with the vehicle (0.9% NaCl). The animals were kept under the same conditions were used as in example 2.2. The DIO-NASH mice group were put on high fat diet (40% AMLN diet, D09100301 Research Diets, USA) and a control group (LEAN-CHOW) was put on a regular chow diet (Altromin 1324, Brogaarden, Denmark) for 35 weeks prior to the study.
# To evaluate Alanine transaminase (ALT) and Aspartate transaminase (AST), blood samples were collected in heparinized tubes and plasma was separated and stored at −80° C. until analysis. ALT and AST were measured using commercial kits (Roche Diagnostics, Germany) on the Cobas™ C-501 autoanalyzer according to the manufacturer's instructions.
# [2] = tested on: DIO mice (C57Bl/6J male mice); test: Insulin resistance (HOMA-IR), 36 days assay in DIO mice; conditions: 50 mg/kg orally twice daily for 36 days, days 1, 8, 15, 22, 29 and 36, vs saline control, similar to metformin 150 mg/kg
# Method: To assess the performance of the compounds disclosed in decreasing insulin resistance, DIO mice (C57Bl/6J male mice) were treated with hydrochloride salts of compounds 4a, 5a; and with compound 7a during 36 days, versus a control treated with saline (0.9% NaCl) and versus DIO mice treated with metformin as a positive control.
# (§1) For the assessment, 60 C57Bl/6 J male mice (16-week-old at delivery and 40 g of average weight), obtained from Charles River France put on high fat diet for 10 weeks. The animals were housed in ventilated and enriched housing cages (310×125×127 mm^3) throughout the experimental phase. Animals' cages litters were changed at least once a week. Mice were housed in groups of 10 mice on a normal 12 hours light cycle (at 08:00 pm lights were switched off), at 22±2° C. and 50±10% relative humidity. After reception, mice were maintained for three additional acclimation weeks. During the whole test (acclimation+treatment phase) a high fat diet (D12492 purchased from Research Diet Inc.; 60% fat) and tap water were provided ad libitum.
# (§2) After the acclimation period, mice were fasted for 6 hours and blood glucose and plasma insulin were measured. Ten animals, those with lower blood glucose/plasma insulin, were discarded from the study. […]
# Body weight were weekly measured as well as blood glucose and plasma insulin after a 6 hour-fasting.
# Blood glucose was measured by sampling blood from the tip of the tail: a drop of blood is collected and placed on a glucometer strip (Accu-Check® glucometer, Roche, Switzerland). Plasma insulin was detected via ELISA (Elisa Kit, Eurobio, France) using 5 μl samples.
# The Homeostatic model assessment-insulin resistance index (HOMA-IR), which is used to quantify insulin resistance, was calculated from fasting blood glucose, and plasma insulin values as follows: HOMA-IR=(mM glucose×μU/mL insulin)/22.5, being this constant a normalizing factor (Matthews et al., 1985, Diabetologia 28(7), 412-9).
# [3] = tested on: DIO mice (C57Bl/6J male mice); test: Liver weight, 36 days assay in DIO mice; conditions: 50 mg/kg orally twice daily, after 36 days, vs saline control and metformin 150 mg/kg
# Method: To assess the performance of the compounds disclosed decreasing liver overweight, DIO mice (C57Bl/6J male mice) were treated with compounds 4a and 5a during 36 days, versus a control of DIO mice treated with vehicle (0.9% NaCl) and DIO mice treated with Metformin as a positive control.
# as §1, with “C57Bl/6J” for “C57Bl/6 J”, “France, were” for “France”, “(D12492;” for “(D12492”, “Inc” for “Inc.;”
# as §2, with “study. Then, the others were randomized into 5 homogenous groups (n=10 mice per group) according to their blood glucose/plasma insulin levels (HOMA-IR) and body weight.” for “study.”
structure (smiles),measurement,setting,value
"COc1ccc(-c2nc(C(=O)NCCN)cc3c2[nH]c2ccccc23)cc1 [Compound 4a, N(-ethylamine)-1-benzosubstituted-β-carboline-3-carboxamide]",plasma ALT,[1],reduced the plasma ALT levels
same,plasma AST,[1],reduced the plasma AST levels
same,insulin resistance (HOMA-IR),[2],lower insulin resistance compared to the control animals
same,liver weight (liver overweight),[3],lower liver weight than either mice treated with metformin or than the control animals
